Values joined by “and” are separate entries in the source; they are usually repeats but may differ in a detail not shown here. Identical values can stand only once. Like-named read-outs stand apart in the source and are kept apart here.
Columns and labels:
[1] = molecular target: T1, human aromatase (CYP19) (Homo sapiens, UniProt P11511); assay: Inhibition of CYP19-catalyzed dealkylation of DBF (fluorescence, 96 well plates); type: biochemical
T1 construct: purchased Gentest P260; host or cells: baculovirus-infected insect cells (microsomes)
T1 sequence (P11511 1-503): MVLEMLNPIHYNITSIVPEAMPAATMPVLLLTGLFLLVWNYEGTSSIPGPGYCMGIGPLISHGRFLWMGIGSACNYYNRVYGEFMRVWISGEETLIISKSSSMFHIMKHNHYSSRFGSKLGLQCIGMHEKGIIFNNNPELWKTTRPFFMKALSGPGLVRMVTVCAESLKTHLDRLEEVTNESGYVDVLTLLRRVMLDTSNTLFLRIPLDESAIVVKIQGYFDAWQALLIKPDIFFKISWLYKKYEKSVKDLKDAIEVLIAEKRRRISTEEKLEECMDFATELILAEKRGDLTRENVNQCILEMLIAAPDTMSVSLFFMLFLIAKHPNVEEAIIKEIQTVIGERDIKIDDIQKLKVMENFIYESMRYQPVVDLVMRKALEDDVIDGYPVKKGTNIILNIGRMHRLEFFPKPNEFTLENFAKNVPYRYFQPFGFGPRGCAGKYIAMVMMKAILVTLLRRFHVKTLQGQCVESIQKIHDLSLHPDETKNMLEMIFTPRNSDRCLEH
Method: The inhibition of aromatase activity was measured in 96 well plates with cDNA-derived enzymes in microsomes prepared from baculovirus-infected insect cells. Dibenzylfluorescien (DBF) was used as a reporter substrate for the activity of the aromatase enzyme.
In the inhibition study, the 50 percent inhibitory concentration (IC50) for each substance was determined with the enzyme. A single concentration of DBF, below the apparent Km, and multiple test substance concentrations, separated by approximately ½ log, were tested in duplicate. Metabolism of the model substrate was assayed by the production of fluorescein metabolite, which was detected and measured using fluorescence.
The amount of solvent during the assay incubations was the same for all test substance concentrations.
As noted above, the assay was conducted in 96 well microplates. Initially, solutions of the substrate in acetonitrite at a concentration equal to the km were prepared. The inhibition of the CYP19-catalyzed dealkylation of DBF was determined, using 4-hydroxyandrostenedione, a known inhibitor of CYP19, as a positive control, and sulfaphenazone, as a negative control. The final concentration of CYP19 (Gentest catalog number P260) was 0.4 pmol/well, and the final concentration of microsomal protein was normalized to 0.25 mg/ml by the addition of the insect cell control protein. The final concentration of substrate was 0.2 μM, and the final concentration of the potassium phosphate buffer was 50 μM. The incubation time was 30 minutes.
A row of 12 wells was used in each test, and each test of a test substance/substrate combination was duplicated in a second row. In each test, wells 1 to 8 contained serial 1:3 dilutions of the inhibitors in which the maximum concentration of phytosterols was 10 μg/ml, and that of the other test substances was 250 μg/ml, assuming complete solubilization at the desired concentrations, i.e., 2 mg/ml for the phytosterols and 50 mg/ml for the other test substances. Wells 9 and 10 contained no inhibitor, and wells 11 and 12 were blanks in which stop solution was added before the enzyme to test for background fluorescence.
The plates were then warmed to 37° C., and incubation was initiated by the addition of the pre-warmed enzyme, additional insect cell control protein in an amount sufficient to provide the desired concentration, and substrate. The final cofactor concentrations were 1.3 μM NADP, 3.3 μM glucose-6-phosphate, and 0.4 U/ml glucose-6-phosphate dehydrogenase. The incubation reactions were stopped after 30 minutes by the addition of 0.075 ml of 2 N NaOH, and fluorescence was measured for each well using a FLUOstar model 403 plate scanner after a post-stop incubation period of about 4 hours. The DBF metabolite fluorescein was measured using an excitation wavelength of about 485 nm and an emission wavelength of about 538 nm.

[2] = type: physicochemical
Method: The test solutions were prepared by adding the test substances to separate aliquots of dimethyl sulfoxide (DMSO). The target concentration of each test substance was 50 mg/ml. […] Mild heat and sonication were applied to aid in obtaining solutions of the other substances at the desired concentration. The black cohosh powder and echinacea were also centrifuged prior to the use of the supernatant in the assay to sediment any particulate matter present in the solutions.
None were successful. […] Insoluble material that would not sediment when centrifuged was still present at 2 mg/ml, forming a thin, whitish layer on the surface of the solution. This particulate material was avoided when sampling the sterol solution for the assay.

For `C[C@]12CCC(=O)C(O)=C1CC[C@@H]1[C@@H]2CC[C@]2(C)C(=O)CC[C@@H]12` [4-Hydroxandrostendione, 4-hydroxyandrostenedione, reference compound], which IC50 [1] is on record?
Its IC50 is 11 nM.

Which IC50 ([1]; positive and negative control, DBF 0.2 μM, 30 min, duplicate determinations, read-out: IC50 CYP19/DBF (controls)) does the source give for `Nc1ccc(S(=O)(=O)Nc2ccnn2-c2ccccc2)cc1` [Sulfaphenazole, reference compound] here?
Its IC50 is > 10000 nM.

For Astaxanthin, which “IC50 CYP19/DBF” value ([1]; cDNA-derived enzyme in microsomes from baculovirus-infected insect cells, DBF 0.2 μM, 30 min, duplicate determinations, concentration assumes complete solubilization) is on record?
The value was 67 µg/mL and 66 µg/mL.

And the “Inhibition of aromatase activity (in words)” value ([1]; summary statement on Table 2)?
Its value is “most significant inhibition”.

What about the “Solubility in DMSO (in words)” value [2] of the same compound?
Its value is “dissolve completely”.

For Phytosterols, which “Solubility in DMSO (in words)” value [2] is on record?
The value was “little or no solubility in DMSO”.
